Columns and labels:
[1] = test system: White Spot Syndrome Virus (WSSV); assay: Challenge of shrimp L. vannamei with White Spot Syndrome Virus, survival; assay type: in vivo; settings: for survival rate: positive control 10%
Method: The virus is isolated from WSSV-infected adult L. vannamei shrimp obtained from commercial farms located in Sinaloa, Mexico in 2013. Virus stocks were purified from infected shrimp homogenates by improved differential centrifugation as described previously by Du et al, (Du, H. H., Fu, L. L., Xu, Y. X., Kil, Z. S., Xu. Z. R. 2007. Aquaculture, 262:532-534) and then stored at −80° C. For assays, the WSSV stock is serially diluted to prepare solutions containing various target copy numbers determined by competitive PCR.
A volume of 20 μL of different dilutions of the tissue homogenate (containing WSSV in 330 mM of NaCl) is injected intramuscularly in fourth or fifth abdominal segment of L. vannamei using an insulin needle. The mortality is recorded twice a day and dead shrimp are tested by PCR to highlight the presence of WSSV.
There are two control groups: • 1.
The shrimp mortality percentage is recorded daily.
Dead shrimp are recorded daily during 120 hours.

[2] = commercial diet supplemented 5 mg/g, fed ad libitum up to 28 days
white shrimp L. vannamei = settings: in vivo

C[N+](C)(C)CCOB1OB2OB(O1)OB1OB(O2)O1.[Cl-] [choline/pentaborate complex]
impact of WSSV infection (summary statement) ([1]; 5 mg/g in feed diets, standardized injection protocols): effective in reducing impact of WSSV infection
survival ([1]; 1% WSSV suspension, 96 h post-challenge, 5 mg/g feed, positive control about 35%, p<0.05): 85%
survival ([1]; 1% WSSV suspension, after 72 h, 5 mg/g feed, positive control about 65%): 95%
survival rate ([1]; 3% WSSV suspension, 96 h post-challenge, 1 mg/g feed): ~40%
survival rate ([1]; 3% WSSV suspension, 96 h post-challenge, 5 mg/g feed): ~40%
survival ([1]; 3% WSSV suspension, after 48 hours, 5 mg/g feed, positive control about 80%): 95%
increment in mean weight compared with control group [2]: 20%
toxicity (summary statement) (white shrimp L. vannamei): not toxic
